Biological target: HIV-1 RT wild-type enzyme (Human immunodeficiency virus type 1 group M subtype B (isolate HXB2) (HIV-1), UniProt P04585)
Test: HIV-1 reverse transcriptase inhibitory activity (RT polymerase assay)
Assay type: biochemical
Details: HIV-1 RT wild-type enzyme 83 pM; RNA-dependent DNA polymerase activity; read-out: IC50
Procedure: Determination of HIV-1 Reverse Transcriptase Inhibitory Activity
The heterodimeric nucleic acid substrate used in the HIV-1 RT polymerase reactions was generated by annealing the DNA primer, biotinylated pD500 (Sigma Aldrich, USA, 5′-biotin-ttg aaa tga ctg cgg tac ggc-3′), SEQ ID NO. 1 to the nucleotide RNA template t500 (derived from hepatitis C virus [HCV] sequence, IBA, Germany, 5′-[…]-3′), SEQ ID NO 2). […] The mixture was then preincubated on an orbital shaker for 30 min at room temperature in microtiter plates (Costar 3365, Corning, USA). A polymerization reaction was initiated by the addition of RNA template/pD500 DNA primer hybrid (16.6 nM final of RNA/DNA hybrid) and dNTPs (2 μM dATP, dGTP, dCTP and 66.6 nM Ru-dUTP (Meso Scale Discovery, USA)). Plate was sealed and incubated for 5-10 min at room temperature on an orbital shaker. Plate was then incubated for 90 min at 37° C. and reactions quenched with 60 μl quenching buffer (50 mM EDTA, 0.7% BSA, 0.7% Tween-20, 0.017% sodium azide in PBS). The resulting solution was incubated at room temperature for an additional 5 min and then 50 μL was transferred to pre-blocked Avidin plates (L15AA, Meso Scale Discovery). Each well of Avidin plate was blocked for 1 h at room temperature with 100 μL 5% BSA in PBS. Blocking solution was removed by tapping vigorously on filter paper to remove all excess liquid. Reaction on pre-blocked avidin plate proceeded for 60 min at room temperature and then contents removed by tapping vigorously on filter paper to remove all excess liquid. After washing plate 3 times with 150 μL 1×PBS and blotting dry between cycles, 150 μL 1× Read Buffer T (4× Read Buffer T, Meso Scale Discovery) was added and incubated for 5 min at room temperature before counting on a Sector Imager […] (Meso Scale Discovery). Titration curves and IC50 values were calculated using a four parameter logisitc fit according to standard procedures. Briefly, % Inhibition=100×((sample raw value)−(mean value of the low control or 0% inhibition))/((mean value of wells representing 100% inhbition)−(mean value of 0% inhbition)). In this assay, low control wells contain DMSO (0% inhbition) and 100% inhibition wells contain 1 μM efavirenz.

SMILES | IC50
N#Cc1cc(Cl)cc(Oc2c(C(F)(F)F)ccn(Cc3cc(C(F)F)n[nH]c3=O)c2=O)c1 [Example 172, 3-chloro-5-((1-((6-(difluoromethyl)-3-oxo-2,3-dihydropyridazin-4-yl)methyl)-2-oxo-4-(trifluoromethyl)-1,2-dihydropyridin-3-yl)oxy)benzonitrile] | 5 nM
Cc1ncn(Cc2ccc(=O)[nH]n2)c(=O)c1Oc1cc(Cl)cc(C#N)c1 [Example 13, 3-chloro-5-((4-methyl-6-oxo-1-((6-oxo-1,6-dihydropyridazin-3-yl)methyl)-1,6-dihydropyrimidin-5-yl)oxy)benzonitrile] | 29 nM
Cc1cc(F)cc(-c2cc(Cn3cnc(C(F)(F)F)c(Oc4cc(Cl)cc(C#N)c4)c3=O)n[nH]c2=O)c1 [Example 60, 3-chloro-5-((1-((5-(3-fluoro-5-methylphenyl)-6-oxo-1,6-dihydropyridazin-3-yl)methyl)-6-oxo-4-(trifluoromethyl)-1,6-dihydropyrimidin-5-yl)oxy)benzonitrile] | 7 nM
N#Cc1cc(Cl)cc(Oc2c(C(F)(F)F)ncn(Cc3cc(-c4ccc(C(N)C(F)(F)F)cc4)c(=O)[nH]n3)c2=O)c1 (stereo not drawn) [Example 89, 3-((1-((5-(4-(1-amino-2,2,2-trifluoroethyl)phenyl)-6-oxo-1,6-dihydropyridazin-3-yl)methyl)-6-oxo-4-(trifluoromethyl)-1,6-dihydropyrimidin-5-yl)oxy)-5-chlorobenzonitrile] | 18 nM
COc1cncc(-c2cc(Cn3cnc(C(F)(F)F)c(Oc4cc(Cl)cc(C#N)c4)c3=O)n[nH]c2=O)c1 [Example 85, 3-chloro-5-((1-((5-(5-methoxypyridin-3-yl)-6-oxo-1,6-dihydropyridazin-3-yl)methyl)-6-oxo-4-(trifluoromethyl)-1,6-dihydropyrimidin-5-yl)oxy)benzonitrile] | 14 nM
N#Cc1cc(Cl)cc(Oc2c(C(F)(F)F)ncn(Cc3cc(-c4ccc5c(c4)CCO5)c(=O)[nH]n3)c2=O)c1 [Example 64, 3-chloro-5-((1-((5-(2,3-dihydrobenzofuran-5-yl)-6-oxo-1,6-dihydropyridazin-3-yl)methyl)-6-oxo-4-(trifluoromethyl)-1,6-dihydropyrimidin-5-yl)oxy)benzonitrile] | 3 nM
N#Cc1cc(Cl)cc(Oc2c(C(F)(F)F)ncn(Cc3cnc(-n4cccn4)[nH]c3=O)c2=O)c1 [Example 142, 3-Chloro-5-[6-oxo-1-(6-oxo-2-pyrazol-1-yl-1,6-dihydro-pyrimidin-5-ylmethyl)-4-trifluoromethyl-1,6-dihydro-pyrimidin-5-yloxy]-benzonitrile] | 35 nM
N#Cc1cc(Cl)cc(Oc2c(C(F)(F)F)ncn(Cc3cc(Cl)c(=O)[nH]n3)c2=O)c1 [Example 91, 3-chloro-5-((1-((5-chloro-6-oxo-1,6-dihydropyridazin-3-yl)methyl)-6-oxo-4-(trifluoromethyl)-1,6-dihydropyrimidin-5-yl)oxy)benzonitrile] | 6 nM
Cc1ccc(-c2cc(Cn3cnc(C(F)(F)F)c(Oc4cc(Cl)cc(C#N)c4)c3=O)n[nH]c2=O)cn1 [Example 83, 3-chloro-5-((1-((5-(6-methylpyridin-3-yl)-6-oxo-1,6-dihydropyridazin-3-yl)methyl)-6-oxo-4-(trifluoromethyl)-1,6-dihydropyrimidin-5-yl)oxy)benzonitrile] | 14 nM
N#Cc1cc(Cl)cc(Oc2c(C(F)(F)F)ncn(Cc3cc(-c4ccncc4)c(=O)[nH]n3)c2=O)c1 [Example 81, 3-chloro-5-((6-oxo-1-((6-oxo-5-(pyridin-4-yl)-1,6-dihydropyridazin-3-yl)methyl)-4-(trifluoromethyl)-1,6-dihydropyrimidin-5-yl)oxy)benzonitrile] | 9 nM
N#Cc1cc(Oc2c(C(F)(F)F)ncn(Cc3ccc(=O)[nH]n3)c2=O)cc(C(F)(F)F)c1 [Example 20, 3-((6-oxo-1-((6-oxo-1,6-dihydropyridazin-3-yl)methyl)-4-(trifluoromethyl)-1,6-dihydropyrimidin-5-yl)oxy)-5-(trifluoromethyl) benzonitrile] | 24 nM
N#Cc1cc(Cl)cc(Oc2c(C(F)(F)F)ncn(Cc3cc(Br)c(=O)[nH]n3)c2=O)c1 [Example 90, 3-((1-((5-bromo-6-oxo-1,6-dihydropyridazin-3-yl)methyl)-6-oxo-4-(trifluoromethyl)-1,6-dihydropyrimidin-5-yl)oxy)-5-chlorobenzonitrile] | 6 nM
N#Cc1cc(Cl)cc(Oc2c(C(F)(F)F)ncn(Cc3cc(-c4ccc(F)cc4)n[nH]c3=O)c2=O)c1 [Example 112, 3-chloro-5-((1-((6-(4-fluorophenyl)-3-oxo-2,3-dihydropyridazin-4-yl)methyl)-6-oxo-4-(trifluoromethyl)-1,6-dihydropyrimidin-5-yl)oxy)benzonitrile] | 5 nM
N#Cc1ccc(-c2cc(Cn3cnc(C(F)(F)F)c(Oc4cc(Cl)cc(C#N)c4)c3=O)n[nH]c2=O)cc1 [Example 75, 3-chloro-5-((1-((5-(4-cyanophenyl)-6-oxo-1,6-dihydropyridazin-3-yl)methyl)-6-oxo-4-(trifluoromethyl)-1,6-dihydropyrimidin-5-yl)oxy)benzonitrile] | 20 nM
N#Cc1cc(Cl)cc(Oc2c(C(F)F)ncn(Cc3cc(C(F)F)n[nH]c3=O)c2=O)c1 [Example 173, 3-chloro-5-((4-(difluoromethyl)-1-((6-(difluoromethyl)-3-oxo-2,3-dihydropyridazin-4-yl)methyl)-6-oxo-1,6-dihydropyrimidin-5-yl)oxy)benzonitrile] | 6 nM
N#Cc1cc(Cl)cc(Oc2c(C(F)(F)F)ncn(Cc3cc(-c4cccnc4)n[nH]c3=O)c2=O)c1 [Example 124, 3-chloro-5-((6-oxo-1-((3-oxo-6-(pyridin-3-yl)-2,3-dihydropyridazin-4-yl)methyl)-4-(trifluoromethyl)-1,6-dihydropyrimidin-5-yl)oxy)benzonitrile] | 6 nM
N#Cc1cc(Cl)cc(Oc2c(C(F)(F)F)ncn(Cc3cc(Oc4ccc(F)cc4)c(=O)[nH]n3)c2=O)c1 [Example 108, 3-chloro-5-((1-((5-(4-fluorophenoxy)-6-oxo-1,6-dihydropyridazin-3-yl)methyl)-6-oxo-4-(trifluoromethyl)-1,6-dihydropyrimidin-5-yl)oxy)benzonitrile] | 316 nM
N#Cc1cc(Cl)cc(Oc2c(C(F)(F)F)ncn(Cc3cc(-c4cccc(C#N)c4)c(=O)[nH]n3)c2=O)c1 [Example 54, 3-chloro-5-((1-((5-(3-cyanophenyl)-6-oxo-1,6-dihydropyridazin-3-yl)methyl)-6-oxo-4-(trifluoromethyl)-1,6-dihydropyrimidin-5-yl)oxy)benzonitrile] | 8 nM
N#Cc1cc(Cl)cc(Oc2c(C(F)F)ncn(Cc3ccc(=O)[nH]n3)c2=O)c1 [Example 160, 3-chloro-5-((4-(difluoromethyl)-6-oxo-1-((6-oxo-1,6-dihydropyridazin-3-yl)methyl)-1,6-dihydropyrimidin-5-yl)oxy)benzonitrile] | 26 nM
N#Cc1cc(Cl)cc(Oc2c(C(F)(F)F)ncn(Cc3cc(-c4ccc(OC(F)F)cc4)n[nH]c3=O)c2=O)c1 [Example 115, 3-chloro-5-((1-((6-(4-(difluoromethoxy)phenyl)-3-oxo-2,3-dihydropyridazin-4-yl)methyl)-6-oxo-4-(trifluoromethyl)-1,6-dihydropyrimidin-5-yl)oxy)benzonitrile] | 7 nM
N#Cc1cc(Cl)cc(Oc2c(C(F)(F)F)ncn(Cc3cnc(-c4ccc(F)cc4)[nH]c3=O)c2=O)c1 [Example 146, 3-chloro-5-((1-((2-(4-fluorophenyl)-6-oxo-1,6-dihydropyrimidin-5-yl)methyl)-6-oxo-4-(trifluoromethyl)-1,6-dihydropyrimidin-5-yl)oxy)benzonitrile] | 19 nM
Cn1cc(-c2cc(Cn3cnc(C(F)(F)F)c(Oc4cc(Cl)cc(C#N)c4)c3=O)c(=O)[nH]n2)cn1 [Example 111, 3-chloro-5-((1-((6-(1-methyl-1H-pyrazol-4-yl)-3-oxo-2,3-dihydropyridazin-4-yl)methyl)-6-oxo-4-(trifluoromethyl)-1,6-dihydropyrimidin-5-yl)oxy)benzonitrile] | 10 nM
CC(C)(O)c1cc(Cn2cnc(C(F)(F)F)c(Oc3cc(Cl)cc(C#N)c3)c2=O)n[nH]c1=O [Example 11, 3-chloro-5-((1-((5-(2-hydroxypropan-2-yl)-6-oxo-1,6-dihydropyridazin-3-yl)methyl)-6-oxo-4-(trifluoromethyl)-1,6-dihydropyrimidin-5-yl)oxy)benzonitrile] | 124 nM
N#Cc1cc(Cl)cc(Oc2c(OC(F)F)ncn(Cc3ccc(=O)[nH]n3)c2=O)c1 [Example 162, 3-chloro-5-(4-(difluoromethoxy)-6-oxo-1-((6-oxo-1,6-dihydropyridazin-3-yl)methyl)-1,6-dihydropyrimidin-5-yloxy)benzonitrile] | 79 nM
